According to PMC4052318, “Cyclodepsipeptides and Other O-Containing Heterocyclic Metabolites from Beauveria felina EN-135, a Marine-Derived Entomopathogenic Fungus” (Marine Drugs, 2014):
≈ marks a conversion by molar mass, not a printed value. Numbered stars: 1 amine (or outer) side, 2 acyl side, 3 side chain; on linkers, the order of the positions; unused ones are H or OH. Square brackets hold non-standard residues; d marks the D form. Peptide text beside a SMILES is read from it. X1 = O=C([C@@H](C[C@H](O)CCl)O[*:1])[*:2]; dLac(3-vinyl) = C=CC[C@@H](O)C(=O)O; NMeV = CN[C@H](C(=O)O)C(C)C; NMeA = CN[C@@H](C)C(=O)O; βAla = NCCC(=O)O

Columns and labels:
[1] = system: brine shrimp (Artemia salina); assay: Brine-shrimp lethality; format: in vivo; details: for LD50, lethality against brine shrimp: colchicine as positive control; for lethal rate against brine shrimp: at a concentration of 100 μg/mL
Experimental: The brine-shrimp (Artemia salina) lethality of the isolated compounds was determined as previously described. Colchicine was used as a positive control.

[2] = system: P. aeruginosa; assay: Antimicrobial assay (disk diffusion and double dilution methods); format: cell-based; details: Pseudomonas aeruginosa; chloramphenicol as positive control; read-out: MIC against P. aeruginosa
Text: The antibacterial activities against E. coli, S. aureus, P. aeruginosa, V. alginolyticus, V. anguillarum, and E. tarda along with the antifungal activities against P. piricola, A. brassicae, C. gloeosporioides, and C. fusarium were investigated using the disk diffusion and double dilution methods as previously described. Chloramphenicol and amphotericin B were used as positive controls for the antibacterial and antifungal bioassays, respectively.

Molecule	LD50, lethality against brine shrimp [1] [μΜ]	other results
COc1cc2c(c(OC)c1OC)-c1ccc(OC)c(=O)cc1[C@@H](NC(C)=O)CC2 [colchicine, reference compound]	88.4	
C=CC[C@H]1OC(=O)CCNC(=O)[C@H](C)N(C)C(=O)[C@H](C(C)C)N(C)C(=O)[C@H]([C@@H](C)CC)NC(=O)[C@@H]2CCCN2C1=O [Compound 4, destruxin A] (cyclo([dLac(3-vinyl)]PI[NMeV][NMeA][βAla]))	5.34	
C[C@@H]1CC2=C(CO1)C(=O)[C@@](C)(O)[C@H](O)C2 [Compound 2, felinone A]		lethal rate against brine shrimp [1]: 61.4%
O=C(N[C@H](CO)[C@H](O)c1ccc([N+](=O)[O-])cc1)C(Cl)Cl [chloramphenicol]		MIC [2]: 4 µg/mL (≈ 12.4 µM)
CC[C@H](C)[C@@H]1NC(=O)[C@@H]2CCCN2C(=O)[C@@H](C[C@H](O)CCl)OC(=O)CCNC(=O)[C@H](C)N(C)C(=O)[C@H](C(C)C)N(C)C1=O [Compound 6, destruxin E chlorohydrin] (cyclo([X1]PI[NMeV][NMeA][βAla]))	2.16	
felinone B [Compound 3]		lethal rate against brine shrimp [1]: 59.6%
CC[C@H](C)[C@@H]1CC(=O)NCC(=O)N[C@@H](C(C)C)C(=O)N[C@H](CC(C)C)C(=O)N[C@@H](C)C(=O)N[C@@H](C)C(=O)O1 [Compound 1, iso-isariin D]	26.58	
